Data on one compound can be found in patent US6888015B2, “Sphingolipid synthesis inhibitor” (Japan Science and Technology Agency, priority 2001, dated 2005).

One experiment relates to CHO cells. The experiment is described as follows: Contents of sphingolipids and phospholipids in cells. The class given is cell-based, Chinese hamster. The following applies: 2.5 μM, 2 days. As to the method:
CHO cells are seeded at density of 10×10^6 cells in 20 mL of F12 medium containing 10% NBS by per 150-mm dish, and incubated at 33° C. overnight. Then, after washed twice with 10 mL of serum-free F 12 medium, the cells are incubated in 20 mL of Nutridoma medium supplemented with or without 2.5 μM HPA-12 for 2 days. Each medium is replaced every 24 hours. After washed with PBS, the cells are harvested by scraping, and re-suspended in PBS. Then, lipids are extracted from the cells.
For analysis of phospholipids, extracted lipids are separated by TLC with a solvent of chloroform/methanol/acetic acid/H2O (volume ratio, 25:15:4:2).
Phosphorous contents in phospholipids are measured by the method disclosed in Document 4.
Contents of GlcCer and N-acetyl neuraminil lactosylseramide (GM3) are determined by densitometric analysis of lipids stained with Coomassie Brilliant Blue disclosed in Document 5.
Cer contents are determined by using a sn-1,2-diacylglycerol assay reagent kit (Amersham Pharmcia Biotech).

The subject of experiment [1] is de novo synthesis of SM in CHO cells. In words: Metabolic labeling of lipids with [14C]serine in CHO cells. In kind it is cell-based, Chinese hamster. As to the method:
CHO cells are cultured in Ham's F12 medium supplemented with 10% newborn bovine serum (NBS), penicillin G (100 unit/mL) and streptomycin sulfate (100 μg/mL) at the temperature of 33° C. and 5% CO2 atmosphere. In the case of HeLa cells, Dulbecco's minimum essential medium is used as a base medium instead of Ham's F12 medium.
Further, Nutridoma medium (Ham's F12 medium containing 1% Nutridoma-SP, product of Roche Molecular Biochemicals, and 25 μg/mL of gentamicin) is used as a serum-free medium. In the case when the medium is supplemented by DMSO or drugs dissolved in DMSO, the concentration of DMSO in culture medium is adjusted to be 0.01%.
CHO cells are seeded at the density of 1.0×10^6 cell in 5 mL of F12 medium containing 10% NBS, by per 60-mm dish, and cultured at 33° C. overnight. Then, the medium is changed to 1.5 mL of Nutridoma medium if necessary, various drugs are added and incubated at 4° C. for 15 minutes. Then, after addition of [^14C] serine (0.75 μCi) or [^14 C] choline (1.0 μCi) to the medium, cells were incubated at 33° C. for various periods of time.
Cells are washed twice with 2 mL of cold phosphate-buffered saline (PBS), and lysed with 900 μL of 0.1% sodium dodecyl sulfate (SDS). Then, 800 μL and 20 μL of lysate are used for lipid extraction and determination of protein concentration, respectively.
For the analysis of lipids labeled with [C^14C] serine, lipids were separated by TLC with a solvent consisting of methylacetate/n-propanol/chloroform/methanol/0.25%KCl (25:25:25:10:9, volume ratio) as a developing solvent.
Radioactive lipid separated on the TLC plates are detected with image analyzer depicted above. After the collection of gels from TLC plates by scraping, the radioactivity of each lipid is determined by liquid scintillation counting and normalized to the protein concentration of cells.

Experiment [2] has as its system sphingosine N-acyl transferase. In words: Sphingosine N-acyl transferase activity, CHO membrane fraction. In kind it is biochemical, Chinese hamster. The following applies: 20 μM; data not shown. As to the method:
Membrane fraction prepared from CHO cells is used as an enzyme source.
Serine palmitoyltransferase activity is determined by the method disclosed in Document 7, and sphingosine N-acyl transferase activity is determined by a modification of the method disclosed in Document 7.

The test system of experiment [3] is conversion of Cer to SM in intact cells. The experiment is described as follows: Conversion of [3H]Cer to [3H]SM in intact cells ([3H]sphingosine pulse-chase). The following applies: 1 μM; chase at 33° C. up to 1 hour with fumonisin B1. The class given is cell-based, Chinese hamster. The method, then:
The measurement of conversion of [^3H] Cer to [^3H] SM in cells is performed by a modified method of the method disclosed in Document 1. That is, as the first step, cells are pulse-labeled in 1.5 mL of Nutridoma medium containing 1 μM D-erythro-[^3H] sphingosine (2.5 μCi). After washed, the cells are incubated in 1.5 mL of Nutridoma medium supplemented with or without 1 μM HPA-12 at 4° C. for 15 minutes, then incubated under the presence of 100 μM fumonisin B, at 33° C. for various periods of time for chase.
The lipids are extracted from the chased cells, and separated by TLC with a developing solvent consisting of chloroform/methanol/H2O (volume ratio, 65:25:4). Then, the radioactivity of each lipid is measured by the method mentioned above.
To examine the inhibitory effect of HPA-12 on the step of Cer-to-SM conversion specifically, metabolic labeling experiments with [^3H] sphingosine are carried out. When cells are labelled with [^3H] sphingosine at 15° C., [^3H] sphingosine is effectively N-acylated and converted to [^3H] Cer, but, [^3H] Cer is not converted to [^3H] SM at this temperature (Document 2). After the labeling with [^3H] sphingosine at low temperature to generate [^3H] Cer, the cells are treated with 1 μM HPA-12 at 4° C. for 15 minutes, and then incubated at 33° C. up to 1 hour for chase. During the chase, de novo synthesis of [^3H] […]

Setting [4] is: [14C]serine labeling, CHO cells.
Where [5] appears, read: [14C]serine labeling, weaker than effect on SM (FIG. 2B).

On to `CCCCCCCCCCCC(=O)NC(CO)CC(O)c1ccccc1` (centres unmarked) [HPA-12, N-(3-hydroxy-1-hydroxymethyl-3-phenylprol)dodecaneamide], for which, in the experiment on CHO cells, the “content of GM3” value is listed as 120 % of the drug-untreated contro; the “content of GlcCer” value was 150 % of the drug-untreated contro; the “content of SM, lower than the drug-free control level by” value is 30%; the “content of ceramide vs untreated” value is reported as “no significant difference”. Besides, in the experiment with CHO cells (CHO cells), the Cer content was found to be 0.40 ± 0.13 nmol/mg protein, the GM3 content worked out at 8.5 ± 0.8 nmol/mg protein, the GlcCer content is recorded as 1.4 ± 0.1 nmol/mg protein and the “PC content (composition of phospholipids)” value is reported as 47.5 ± 0.2 % of total lipids recovered. Further, in the experiment with CHO cells (CHO cells), the “PE content (composition of phospholipids)” value is on record as 30.6 ± 0.3 % of total lipids recovered, the “PI/PS content (composition of phospholipids)” value was 13.4 ± 0.3 % of total lipids recovered and the “SM content (composition of phospholipids)” value is listed as 8.4 ± 0.1 % of total lipids recovered. Moreover, in the experiment on CHO cells (drug-treated cells), the “content of total phospholipids” value was 315±2 nmol/mg protein. Also, in experiment [1] (0.1 μM, 2-hour labeling with [14C]serine (FIG. 2A)), the “formation of [14C]SM” value is given as “significantly inhibits”. In experiment [1] (1 μM, time course up to 5 hours (FIG. 2B)), the “formation of [14C] (SM), level relative to control” value is “approximately 30 % of the drug-free control level”. Moreover, the “formation of [14C]SM” value in experiment [1] (2.5 μM drug, [14C]serine labeling, CHO cells (FIG. 1B)) is “remarkably inhibited”. Further, the “concentration at which the inhibitory effect on [14C]SM formation reaches a plateau” value in experiment [1] (2-hour labeling with [14C]serine (FIG. 2A)) was “around 1 μM”. In addition, in experiment [1] (setting [4]), the “formation of [14C]phosphatidylethanolamine (PE)” value was “does not affect” and the “formation of [14C]phosphatidylserine (PS)” value is “does not affect”. In experiment [1] (setting [5]), the “formation of [14C]Cer” value was “significantly inhibited” and the “formation of [14C]GlcCer” value was “significantly inhibited”. Besides, in experiment [2], the “activity of sphingosine N-acyl transferase” value is reported as “does not affect”. Moreover, in experiment [3], the “formation of [3H]GlcCer” value is “does not inhibit and rather increases”; the “inhibition of formation of [3H]SM” value amounted to 50%.
